Structures can show the parent of a compound that is named as a salt.
Assays:
[1] = test system: conditioned avoidance response; test: conditioned avoidance (shelf-jump response) test; type: in vivo, male CD rats; conditions: rats; for Active at: i.p.
Description: A test designed to determine the potential antipsychotic activity of the compounds of the invention is the conditioned avoidance (shelf-jump response) test.
This test is carried out as follows:
Male CD rats (Charles River) maintained at approximately 400-450 gm body weight are used. […] A moveable wall, controlled by a motor, determines whether the rat has access to the shelf at any time during the experiment. The experimental chamber also contains a house light and sonalert. A steel grid floor in the main chamber is wired for presentation of electric shock. Each trial consists of a fifteen-second warning tone (conditioned stimulus), continuing for an additional fifteen seconds accompanied by electric shock (unconditioned stimulus). A response (jumping onto the exposed shelf of the upper chamber) occurring during the initial fifteen-second warning tone is considered an avoidance response, while a response occurring during shock delivery is considered an escape response. Trials are presented on a fixed interval schedule of one minute. The session consists of thirty-six trials. Animals are run twice weekly with control sessions always preceding a drug run, and with at least one day intervening. Compounds are administered i.p. or p.o. at appropriate pre-treatment times to a minimum of five rats at each dose level over a range of doses.
The following experimental parameters are recorded by computer: (1) the number of avoidance responses, (2) the number of escape responses, and (3) the number of trials in which no response occurred.
Response counts are summed over all subjects at a given dose. […] This number is expressed as a percentage of the total trials. Control performance is arbitrarily assigned a value of 100% for avoidance responding and the dose calculated to produce a 50% block in avoidance responding (AB50) is obtained from a dose-effect regression line fitted by the method of least squares. Potential antipsychotic compounds suppress avoidance responding and increase escape responding.

[2] = target: limbic D-2 dopamine receptor (Rattus norvegicus, UniProt P61169); test: inhibition of limbic D-2 dopamine receptor binding (3H-spiroperidol); conditions: read-out: Limbic D-2 Binding Inhibition, % inhibition at 1 μM
Description: This in vitro assay measures the ability of the compounds tested to bind to the dopamine receptor sites.
The assay is carried out as follows:
Several rats are decapitated and the brains are rapidly removed. Limbic brain tissue (nucleus accumbens, septal area, olfactory tubercle) is dissected and homogenized on ice in 9 volumes of buffer (50 mM Tris-HCl, 120 mM NaCl, 5 mM KCl, 1 mM CaCl2, 1 mM MgCl2, 0.1% L-ascorbic acid, 10 μM pargyline HCl, pH 7.1) using a Polytron homogenizer at setting 5 for three 15-sec bursts. The homogenate is then diluted 4-fold with buffer and centrifuged at 30,000×g for 20 min, and the supernatant is discarded. The pellet is resuspended in the same volume of buffer and recentrifuged as before, again discarding the supernatant. This pellet is then resuspended in the same volume of buffer used in the homogenization, and the protein content of this preparation is assayed by the Lowry method. The homogenate is stored frozen at -70° C. until use.
At the end of the incubation, 3 ml of cold 50 mM Tris-HCl, pH 7.7, are added to each tube, and the contents are rapidly vacuum-filtered through Whatman GF/B glass-fiber filters. The filters are then rapidly washed 3 times with 3 ml of the same buffer, placed in scintillation vials, and shaken for 15 min with 10 ml of Hydrofluor (National Diagnostics) scintillation cocktail. The vials are then counted in a Packard 460CD scintillation counter.
Specific binding is defined as total binding less binding in the presence of 1 μM (+)butaclamol. Binding in the presence of various concentrations of test drug is expressed as a per cent of specific binding when no drug is present.

[3] = test system: apomorphine-induced stereotyped behavior (in vivo dopamine receptor blocking activity); conditions: i.p., mice; inactivity taken as low potential for extrapyramidal side effects

Sequence of limbic D-2 dopamine receptor (P61169 whole entry): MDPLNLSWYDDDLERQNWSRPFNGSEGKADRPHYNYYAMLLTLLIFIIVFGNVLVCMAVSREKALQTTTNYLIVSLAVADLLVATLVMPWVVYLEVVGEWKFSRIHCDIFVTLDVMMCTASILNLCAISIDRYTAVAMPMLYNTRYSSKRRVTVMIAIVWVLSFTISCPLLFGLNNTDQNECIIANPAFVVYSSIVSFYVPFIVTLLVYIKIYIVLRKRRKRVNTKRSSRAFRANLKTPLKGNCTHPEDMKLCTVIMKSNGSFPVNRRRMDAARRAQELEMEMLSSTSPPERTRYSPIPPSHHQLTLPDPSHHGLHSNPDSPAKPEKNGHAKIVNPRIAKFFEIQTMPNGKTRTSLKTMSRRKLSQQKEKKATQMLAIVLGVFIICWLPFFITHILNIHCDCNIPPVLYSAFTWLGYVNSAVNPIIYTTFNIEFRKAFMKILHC

| SMILES | Active at [1] [mg/kg] | inhibition at 1 µM [2] [%] | ED50 ([1]; Rattus norvegicus, ip, read-out: AB50 (50% block in avoidance responding)) [mg/kg] | activity in apomorphine-induced stereotyped behavior assay [3] |
| --- | --- | --- | --- | --- |
| Cl.O=C1C2C3CCC(O3)C2S(=O)(=O)N1CCCCc1ccncc1 (stereo not drawn) [Example 1, Hexahydro-2-[4-(4-pyridinyl)butyl]-4,7-epoxy-1,2-benzisothiazol-3(2H)-one 1,1-dioxide, hydrochloride] | 40 | 3 |  |  |
| O=C1CC2(CCCC2)CC(=O)N1CCCCN1CCN(c2ncccn2)CC1 [Buspirone, 8-[4-[4-(2-pyrimidinyl)-1-piperazinyl]butyl]-8-azaspiro[4.5]decane-7,9-dione, reference compound] |  |  | 9.44 | inactive |
| Cl.O=C1C2C3C=CC(C3)C2S(=O)(=O)N1CCCCc1ccncc1 (stereo not drawn) [Example 3, 3a,4,7,7a-Tetrahydro-2-[4-(4-pyridinyl)butyl]-4,7-methano-1,2-benzisothiazol-3(2H)-one 1,1-dioxide, hydrochloride] | 40 | 1 |  |  |
| CC1=C(C)CC2C(C1)C(=O)N(CCCCc1ccncc1)S2(=O)=O.Cl (stereo not drawn) [Example 5, 3a,4,7,7a-Tetrahydro-5,6-dimethyl-2-[4-(4-pyridinyl)butyl]-1,2-benzisothiazol-3(2H)-one 1,1-dioxide, hydrochloride] | 40 | 56 |  |  |
| O=c1c2ccccc2[s+]([O-])n1CCCCc1ccncc1 (stereo not drawn) [Example 7, 2-[4-(4-Pyridinyl)butyl]-1,2-benzisothiazol-3(2H)-one 1-oxide, hydrochloride] |  | 14 |  |  |
| O=C1C2C3CCC(O3)C2S(=O)(=O)N1CCCCC1CCN(c2cncc(Cl)n2)CC1 (stereo not drawn) [Example 4, Hexahydro-2-[4-[1-(6-chloro-2-pyrazinyl)-4-piperidinyl]butyl]-4,7-epoxy-1,2-benzisothiazol-3(2H)-one 1,1-dioxide, hydrochloride, hydrate] |  | 7 |  |  |
| O=C1C2C3CCC(O3)C2S(=O)(=O)N1CCCCC1CCN(c2cnccn2)CC1 (stereo not drawn) [Example 6, Hexahydro-2-[4-[1-(2-pyrazinyl)-4-piperidinyl]butyl]-4,7-epoxy-1,2-benzisothiazol-3(2H)-one 1,1-dioxide, hydrochloride, hemihydrate] |  | 6 |  |  |
| O=C1C2C3CCC(O3)C2S(=O)(=O)N1CCCCC1CCN(c2ncccn2)CC1 (stereo not drawn) [Example 2, Hexahydro-2-[4-[1-(2-pyrimidinyl)-4-piperidinyl]butyl]-4,7-epoxy-1,2-benzisothiazol-3(2H)-one 1,1-dioxide, hydrochloride, monohydrate] |  | 6 |  |  |

From patent US4942234A, “Isothiazolone 1,1-dioxide derivatives with psychotropic activity” (American Home Products Corporation, priority 1989, dated 1990)
